According to paper PMC11112612, “Sulfonylureas exert antidiabetic action on adipocytes by inhibition of PPARγ serine 273 phosphorylation” (Molecular Metabolism, 2024):
pIC50: −log10 of the molar value.

How the values were obtained:
[1] = molecular target: T1, peroxisome proliferator-activated receptor γ (PPARγ) (Homo sapiens, UniProt P37231); experiment: in vitro CDK5/P35 kinase assay on PPARγ LBD (ADP-Glo, phospho-Ser-273 Western blot); histone H1 phosphorylation not inhibited; PPRE luciferase in HEK293T; type: biochemical
T1 construct: gene PPARG; recombinant PPARγ LBD
T1 sequence (P37231 231-505 limits assumed): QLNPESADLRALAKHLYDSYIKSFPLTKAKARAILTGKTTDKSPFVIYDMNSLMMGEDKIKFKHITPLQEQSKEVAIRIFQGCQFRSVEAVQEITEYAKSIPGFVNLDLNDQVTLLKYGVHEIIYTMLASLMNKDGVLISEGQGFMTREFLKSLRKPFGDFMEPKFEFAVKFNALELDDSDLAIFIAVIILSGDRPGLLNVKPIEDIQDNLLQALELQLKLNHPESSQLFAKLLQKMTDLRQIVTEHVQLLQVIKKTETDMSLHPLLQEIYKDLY
T1 sequence (Q00535 whole entry partner, the tested form may be a part): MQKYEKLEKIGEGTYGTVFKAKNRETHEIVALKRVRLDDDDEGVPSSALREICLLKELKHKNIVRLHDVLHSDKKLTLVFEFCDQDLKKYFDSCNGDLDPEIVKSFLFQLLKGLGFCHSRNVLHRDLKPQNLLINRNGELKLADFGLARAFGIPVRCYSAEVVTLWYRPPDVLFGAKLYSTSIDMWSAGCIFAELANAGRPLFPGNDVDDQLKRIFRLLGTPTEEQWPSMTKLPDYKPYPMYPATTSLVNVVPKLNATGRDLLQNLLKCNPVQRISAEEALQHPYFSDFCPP
T1 sequence (Q15078 2-307 partner): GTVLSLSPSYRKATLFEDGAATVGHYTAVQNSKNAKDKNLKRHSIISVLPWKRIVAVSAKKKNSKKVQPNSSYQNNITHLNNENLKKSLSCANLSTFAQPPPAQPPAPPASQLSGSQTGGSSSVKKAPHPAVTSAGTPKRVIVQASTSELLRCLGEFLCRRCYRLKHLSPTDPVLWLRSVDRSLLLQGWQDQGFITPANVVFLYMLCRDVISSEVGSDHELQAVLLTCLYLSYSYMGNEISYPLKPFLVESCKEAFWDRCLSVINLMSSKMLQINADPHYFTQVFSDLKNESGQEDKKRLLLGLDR

[2] = molecular target: T1, peroxisome proliferator-activated receptor γ (PPARγ); experiment: in vitro CDK5/P35 kinase assay on PPARγ LBD (ADP-Glo, phospho-Ser-273 Western blot); histone H1 phosphorylation not inhibited; weak PPRE luciferase activation; type: biochemical

Compound | pIC50 [1] | pIC50 [2]
COc1ccc(Cl)cc1C(=O)NCCc1ccc(S(=O)(=O)NC(=O)NC2CCCCC2)cc1 [glibenclamide] | 7.60 | 
CCC1=C(C)CN(C(=O)NCCc2ccc(S(=O)(=O)NC(=O)N[C@H]3CC[C@H](C)CC3)cc2)C1=O [glimepiride] |  | 6.42
